Experimental data reported in patent US12240857B2 (priority 2017, dated 2025).

Assays:
[1] = system: EBOV mucin-domain-deleted glycoprotein pseudotyped VSV; test: microbe, parasite or virus in culture; format: cell-based, Zaire ebolavirus; details: Zaire ebolavirus, Vero, read-out: EC50 EBOV
[2] = system: BDBV mucin-domain-deleted glycoprotein pseudotyped VSV; test: microbe, parasite or virus in culture; format: cell-based, Bundibugyo ebolavirus; details: Vesicular stomatitis virus, Vero, read-out: EC50 BDBV
in vitro = details: African green monkey, CC50

| SMILES | EC50 [1] [nM] | EC50 [2] [nM] | CC50 (in vitro) [nM] |
| --- | --- | --- | --- |
| CC12CC3CC(C(=O)NC4CC5(CNC5)C4)(C1)CC(c1ccccc1)(C3)C2 (stereo not drawn) [Example A89] | 250 | 880 | 40700 |
| CC12CC3CC(C(=O)NC4CC5(CC(N)C5)C4)(C1)CC(c1ccccc1)(C3)C2 (stereo not drawn) [Example A90] | 50 | 200 | 59000 |
| CC12CC3CC(C(=O)N4CC5(CC(N)C5)C4)(C1)CC(c1ccccc1)(C3)C2 (stereo not drawn) [Example A91] | 120 | 190 | 17400 |
| CC12CC3CC(C(=O)NC4C[C@H]5CC[C@H](C4)N5)(C1)CC(c1ccccc1)(C3)C2 (stereo partly drawn) [Example A92] | 190 | 700 | 10800 |
| CC12CC3CC(C(=O)N4C5CCC4CC(N)C5)(C1)CC(c1ccccc1)(C3)C2 (stereo not drawn) [Example A93] | 210 | 360 | 12200 |
| N[C@H]1CC[C@H](NC(=O)C23CC4CC(C2)CC(C(F)(F)F)(C4)C3)CC1 [Example A94] | 1000 | 880 | 5100 |
| CC12CC3CC(C(=O)NCC4CCNCC4)(C1)CC(c1ccccc1)(C3)C2 (stereo not drawn) [Example A95] | 490 | 970 | 23100 |
| CC12CC3CC(C(=O)N[C@H]4CC[C@H](CN)CC4)(C1)CC(c1ccccc1)(C3)C2 (stereo partly drawn) [Example A96] | 30 | 80 | 11600 |
| N[C@H]1CC[C@H](NC(=O)CC2(c3ccccc3)C3CC4CC(C3)CC2C4)CC1 (stereo partly drawn) [Example A97] | 340 | 250 | 100000 |
| N[C@H]1CC[C@@H](NC(=O)CC2(c3ccccc3)C3CC4CC(C3)CC2C4)CC1 (stereo partly drawn) [Example A98] | 1160 | 580 | 11300 |
| O=C(CC1(c2ccccc2)C2CC3CC(C2)CC1C3)NC1CCNCC1 (stereo not drawn) [Example A99] | 690 | 190 | 26700 |
| Cc1cccc(C23CC4CC(CC(C(=O)N[C@H]5CC[C@H](N)CC5)(C4)C2)C3)c1 [Example A100] | 220 | 180 | 6300 |
| CC12CC3CC(C(=O)N[C@H]4[C@@H]5CNC[C@@H]54)(C1)CC(c1ccccc1)(C3)C2 (stereo partly drawn) [Example A102] | 120 | 210 | 29000 |
| CC12CC3CC(C(=O)Nc4ccc(CN)cc4)(C1)CC(c1ccccc1)(C3)C2 (stereo not drawn) [Example A103] | 70 | 280 | 7900 |
| CN(C(=O)C12CC3CC(C)(C1)CC(c1ccccc1)(C3)C2)C1CCNCC1 (stereo not drawn) [Example A104] | 60 | 220 | 66000 |
| CC(C)C12CC3CC(C(=O)N[C@H]4CC[C@H](N)CC4)(CC(c4ccccc4)(C3)C1)C2 (stereo partly drawn) [Example A105] | 140 | 1050 | 35000 |
| C[C@H]1C[C@H](NC(=O)C23CC4CC(C)(C2)CC(c2ccccc2)(C4)C3)CCN1 (stereo partly drawn) [Example A107] | 46 | 300 | 14700 |
| CC12CC3CC(C(=O)N[C@@H]4CCNC[C@H]4F)(C1)CC(c1ccccc1)(C3)C2 (stereo partly drawn) [Example A108] | 25 | 210 | 16500 |
| CC12CC3CC(C(=O)NC4CCNCC4(F)F)(C1)CC(c1ccccc1)(C3)C2 (stereo not drawn) [Example A109] | 80 | 930 | 37000 |
| C[C@H]1C[C@@H](NC(=O)C23CC4CC(C)(C2)CC(c2ccccc2)(C4)C3)CCN1 (stereo partly drawn) [Example A110] | 21 | 190 | 17500 |
| CC12CC3CC(C(=O)NC4CCNCC4(C)C)(C1)CC(c1ccccc1)(C3)C2 (stereo not drawn) [Example A111] | 18 | 150 | 10700 |
| CC1CNCCC1NC(=O)C12CC3CC(C)(C1)CC(c1ccccc1)(C3)C2 (stereo not drawn) [Example A112] | 37 | 260 | 7200 |
| COC(=O)C12CC3CC(C(=O)N[C@H]4CC[C@H](N)CC4)(C1)CC(c1ccccc1)(C3)C2 (stereo partly drawn) [Example A115] | 980 | > 1000 | 59000 |

| SMILES | EC50 [1] [nM] | EC50 [2] [nM] | CC50 (in vitro) [nM] |
| --- | --- | --- | --- |
| CC12CC3CC(C(=O)Nc4ccncc4)(C1)CC(c1ccccc1)(C3)C2 (stereo not drawn) [Example A201, 3-methyl-5-phenyl-N-(pyridin-4-yl)adamantane-1-carboxamide] | 1100 | > 1000 | 16400 |
| CC12CC3CC(C(=O)NCc4ncc[nH]4)(C1)CC(c1ccccc1)(C3)C2 (stereo not drawn) [Example A202, N-(1H-imidazol-2-ylmethyl)-3-methyl-5-phenyladamantane-1-carboxamide] | 590 | 960 | 41500 |
| CC12CC3CC(C(=O)Nc4ccnc(N)c4)(C1)CC(c1ccccc1)(C3)C2 (stereo not drawn) [Example A203, N-(2-aminopyridin-4-yl)-3-methyl-5-phenyladamantane-1-carboxamide] | 910 | 1020 | 3900 |
| [O-][S+](NC1CCNCC1)C12CC3CC(CC(C3)C1)C2 (stereo not drawn) [Example A204, N-(piperidin-4-yl)adamantane-1-sulfinamide] | > 1000 | > 1000 | > 100000 |
| O=S(=O)(NC1CCNCC1)C12CC3CC(CC(C3)C1)C2 [Example A205, N-(piperidin-4-yl)adamantane-1-sulfonamide] | > 1000 | > 1000 | 37000 |
| CN1CCN(CC23CC4CC(C2)CC(c2ccccc2)(C4)C3)CC1 [Example C1] | 180 | 206 | 5800 |
| CC12CC3CC(CNC4CCNCC4)(C1)CC(c1ccccc1)(C3)C2 (stereo not drawn) [Example C3, N-((3-methyl-5-phenyladamantan-1-yl)methyl)piperidin-4-amine] | 234 | 210 | 1800 |
| CC1CCN(CCCOc2ccc(C34CC5CC(CC(C5)C3)C4)cc2)CC1 [Example C4, 1-(3-(4-(adamantan-1-yl)phenoxy)propyl)-4-methylpiperidine] | 140 | 400 | 7200 |
| c1cc(C23CC4CC(CC(C4)C2)C3)ccc1OCCCN1CCCCC1 [Example C5, 1-(3-(4-(adamantan-1-yl)phenoxy)propyl)piperidine] | 140 | 550 | 14300 |
| CN1CCN(CCCOc2ccc(C34CC5CC(CC(C5)C3)C4)cc2)CC1 [Example C6, 1-(3-(4-(adamantan-1-yl)phenoxy)propyl)-4-methylpiperazine] | 120 | 640 | 3800 |
| CC1CCN(CC(O)CCOc2ccc(C34CC5CC(CC(C5)C3)C4)cc2)CC1 (stereo not drawn) [Example C7, 4-(4-(adamantan-1-yl)phenoxy)-1-(4-methylpiperidin-1-yl)butan-2-ol] | 470 | 770 | 4100 |
| OC(CCOc1ccc(C23CC4CC(CC(C4)C2)C3)cc1)CN1CCCCC1 (stereo not drawn) [Example C8, 4-(4-(adamantan-1-yl)phenoxy)-1-(piperidin-1-yl)butan-2-ol] | 140 | 290 | 1300 |
| CN1CCN(CC(O)CCOc2ccc(C34CC5CC(CC(C5)C3)C4)cc2)CC1 (stereo not drawn) [Example C9, 4-(4-(adamantan-1-yl)phenoxy)-1-(4-methylpiperazin-1-yl)butan-2-ol] | 660 | 990 | 8300 |
| CC1CCN(C[C@H](O)COCC23CC4CC(C2)CC(c2ccccc2)(C4)C3)CC1 [Example C10, (2S)-1-(4-methylpiperidin-1-yl)-3-[(3-phenyladamantan-1-yl)methoxy]propan-2-ol] | 190 | 170 | 3600 |
| CC1CCN(C[C@@H](O)COCC23CC4CC(C2)CC(c2ccccc2)(C4)C3)CC1 [Example C11, (2R)-1-(4-methylpiperidin-1-yl)-3-[(3-phenyladamantan-1-yl)methoxy]propan-2-ol] | 180 | 110 | 3600 |
| CC1CCN(C[C@H](O)COCCC23CC4CC(C2)CC(c2ccccc2)(C4)C3)CC1 [Example C12, (2S)-1-(4-methylpiperidin-1-yl)-3-[2-(3-phenyladamantan-1-yl)ethoxy]propan-2-ol] | 270 | 190 | 1200 |
| CC1CCN(C[C@@H](O)COCCC23CC4CC(C2)CC(c2ccccc2)(C4)C3)CC1 [Example C13, (2R)-1-(4-methylpiperidin-1-yl)-3-[2-(3-phenyladamantan-1-yl)ethoxy]propan-2-ol] | 170 | 110 | 3600 |
| O=C(NC1CCNCC1)c1ccc(NCC23CC4CC(C2)CC(c2ccccc2)(C4)C3)nc1 [Example C14, 6-{[(3-phenyladamantan-1-yl)methyl]amino}-N-(piperidin-4-yl)pyridine-3-carboxamide] | > 1000 | 1000 | 3900 |
| c1ccc(C23CC4CC(CC(CNc5ccc(CN6CCCCC6)cn5)(C4)C2)C3)cc1 [Example C15, N-[(3-phenyladamantan-1-yl)methyl]-5-(piperidin-1-ylmethyl)pyridin-2-amine] | > 1000 | 980 | 3900 |
| NCc1ccc(NCC23CC4CC(C2)CC(c2ccccc2)(C4)C3)nc1 [Example C16, 5-(aminomethyl)-N-[(3-phenyladamantan-1-yl)methyl]pyridin-2-amine] | 980 | 750 | 8000 |
| CC1CCN(C[C@H](O)COc2ccc(C34CC5CC(CC(c6ccccc6)(C5)C3)C4)cc2)CC1 [Example C18, (2S)-1-(4-methylpiperidin-1-yl)-3-[4-(3-phenyladamantan-1-yl)phenoxy]propan-2-ol] | 80 | 260 | 2700 |
| CCC12CC3CC(C1)CC(c1ccc(OC[C@@H](O)CN4CCC(C)CC4)cc1)(C3)C2 [Example C19, (S)-1-(4-(−3-ethyladamantan-1-yl)phenoxy)-3-(4-methylpiperidin-1-yl)propan-2-ol] | 110 | 200 | > 100000 |
